Results reported in patent US20140073637A1, “AMINO-SUBSTITUTED-ALKYLOXY-BENZO[E]PYRIDO[4,3-B]INDOLE DERIVATIVES AS NEW POTENT KINASE INHIBITORS” (INSTITUT CURIE, priority 2011, published 2014).
Where two headings read alike, the source gives them in different places.

Columns and labels:
Aurora B = Aurora B (Homo sapiens, UniProt Q96GD4); assay: Aurora B inhibition in cells: Histone H3 Ser10 phosphorylation by western blotting and immunofluorescence; type: cell-based; set-up: endogenous in cells; host or cells: U2OS (human osteosarcoma); HeLa also used for the maleate salts; key to Aurora B inhibition: +++: very efficient inhibition; −: no inhibition; details: for Aurora B inhibition in cellulo (Histone H3 phosphorylation, in words): U2OS mitotic extracts, 1 μM overnight, western blotting (FIG. 3); for Aurora B inhibition: cells, Histone H3 Ser10 phosphorylation, western blotting and immunofluorescence, compounds 1 μM
Sequence of Aurora B (Q96GD4 whole entry): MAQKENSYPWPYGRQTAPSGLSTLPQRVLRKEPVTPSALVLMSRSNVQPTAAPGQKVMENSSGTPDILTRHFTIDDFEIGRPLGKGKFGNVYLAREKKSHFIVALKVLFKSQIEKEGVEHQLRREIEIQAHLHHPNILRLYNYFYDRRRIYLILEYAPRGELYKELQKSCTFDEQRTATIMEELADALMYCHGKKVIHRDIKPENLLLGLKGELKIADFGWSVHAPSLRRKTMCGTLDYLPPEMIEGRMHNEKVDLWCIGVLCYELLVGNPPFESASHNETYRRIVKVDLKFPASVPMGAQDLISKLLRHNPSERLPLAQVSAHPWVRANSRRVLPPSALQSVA
Method: Actin is used as control of quantity. Cells were incubated overnight in the presence of either C1, or C2 or CH21 or C14 or DMSO(C: control). All compounds were tested at 1 μM. Proteins were detected by western blotting.
Cells were incubated with the different molecules and Aurora B inhibition is estimated by western blotting (WB) and immuno fluorescent experiments. Histone H3 phosphorylated on Ser10 is used as a marker of Aurora B kinase activity and actin as an internal control. Each WB signal is compared to the control in the absence of compound. The efficiency estimated by WB is indicated by +++: very efficient inhibition to −: no inhibition. Immunofluorescent labelling of a mitotic cell by Histone H3 illustrates Aurora B kinase activity. However immunofluorescence is less sensitive than WB. Active molecules are underlined by a square and the intensity of the line indicates the efficiency of inhibition.
FIG. 10A: Immunofluorescence with phospho-Ser10-Histone H3 antibodies. Either the percentage of positive phospho-Ser10-Histone H3 is indicated or a representative mitosis shown. […] Immunofluorescent assays were realized with a specific phospho-antibody and mitotic U2OS cells are recognized by their DNA content stained with Hoechst. On the right, a representative cell or the percentage of H3-S10-P labelled mitosis.
(§1) FIG. 10B: Immunoblotting analysis of histone H3 phosphorylation. U2OS cells were incubated overnight with Nocodazole (50 nM) in the presence of either DMSO (Co) or Compounds (1 μM). Cells were then collected and lyzed. Identical amounts of the lyzed cell samples were run on 18% acrylamide gel containing SDS.
as §1, with “FIGS. 11B and 11C:” for “FIG. 10B:”, “U2OS and HeLa” for “U2OS”
Cells were incubated with the different molecules and Aurora B inhibition is estimated by western blotting and immunofluorescent experiments. Histone H3 phosphorylated on Ser10 is used as a marker of Aurora B kinase activity and actin as an internal control. Results are represented in FIGS. 4 and 10 and Table 3.
Cells were treated by compounds, harvested and lyzed in 9M urea then supplemented with Laemmli sample buffer. Cell extracts were subjected to SDS-PAGE and transferred to nitrocellulose filter (GE Healthcare). After blocking with 5% non-fat milk in PBS for at least 1 hour, the membranes were incubated with the primary antibodies. The following antibodies were used: phospho-Histone H3 Ser10 (1:2000, Upstate Biotechnology), anti LAST1 (Cell signalling), anti Aurora B (epitomics) and anti alpha-tubulin (Sigma) Anti-rabbit horseradish peroxidase (1:5000, GE Healthcare) was used as secondary antibodies. Bands were visualized by ECL technique (Amersham Bioscience).
Cells were seeded on glass coverslips and treated by compounds (1 μM) overnight. After treatment, cells were fixed in 4% formaldhehyde at 37° C. for 15 minutes, then permeabilized for 5 minutes with Triton X-100 in PBS.

HeLa cells = assay: Cell viability / antiproliferative assay; type: cell-based; details: Homo sapiens, HeLa
From the text: Antiproliferative assays with HeLa cells have been performed with the preferred compounds and compared to the C1 and C2. The average of three independent experiments is shown. IC50 obtained with C1 and C2 were previously reported in Hoang et al, 2009, and are indicated for comparison. The lateral chain of each molecule is recalled, knowing that all the molecules have an oxo group at position 11. IC50 are indicated, i.e. the concentration that induced 50% death.
(§2) H358, H322 (lung cancer cells), U373 (glioblastomes) and HeLa ([…]) were grown in DMEM (1.5 g/L glucose) whereas HL60 (human myeloid cell line) cells were in RPMI 1640. U2OS (a human osteosarcoma cell line) cells were cultured in McCoy's Medium 5 A and liver cells (SK Hep 1) in DMEM (4 g/L glucose, (Gibco-Invitrogen). Media (Gibco-Invitrogen), were supplemented with 10% heat-inactivated foetal bovine serum (Gibco-Invitrogen), L-glutamine (2 mM), penicillin (100 UI/ml) and streptomycin (100 μg/ml).
(§3) Cell proliferation assays were conducted in 96 well culture plates. Assays were run in triplicate. Cell viability was estimated upon 72 h of treatment with varying concentrations of compound by addition of CellTiter 96Queous one Solution Reagent (Promega) directly to culture wells under conditions defined by the manufacturer.

H358 cells = assay: Cell viability test (CellTiter 96 AQueous One Solution); type: cell-based; details: for IC50: Homo sapiens, NCI-H358, H358 (Lung), 72 h of treatment, read-out: IC50 (cell line viability)
Method: as §2, §3

HL60 = assay: as above; type: cell-based; details: Homo sapiens, HL-60; HL60 (Leukemia); 72 h of treatment; read-out: IC50 (cell line viability)
Method: as §2, §3

U2OS = assay: as above; type: cell-based; details: Homo sapiens; U2OS (Osteosarcoma); 72 h of treatment; read-out: IC50 (cell line viability) (converted)
Method: as §2, §3

U373 = assay: as above; type: cell-based; details: Homo sapiens, U373 MG; U373 (Glioblastoma); 72 h of treatment; read-out: IC50 (cell line viability)
Method: as §2, §3

RSK1 = RSK1 (Homo sapiens, UniProt Q15418); assay: In vitro assay against recombinant kinases (FIG. 2); type: biochemical
Sequence of RSK1 (Q15418 whole entry, species assumed): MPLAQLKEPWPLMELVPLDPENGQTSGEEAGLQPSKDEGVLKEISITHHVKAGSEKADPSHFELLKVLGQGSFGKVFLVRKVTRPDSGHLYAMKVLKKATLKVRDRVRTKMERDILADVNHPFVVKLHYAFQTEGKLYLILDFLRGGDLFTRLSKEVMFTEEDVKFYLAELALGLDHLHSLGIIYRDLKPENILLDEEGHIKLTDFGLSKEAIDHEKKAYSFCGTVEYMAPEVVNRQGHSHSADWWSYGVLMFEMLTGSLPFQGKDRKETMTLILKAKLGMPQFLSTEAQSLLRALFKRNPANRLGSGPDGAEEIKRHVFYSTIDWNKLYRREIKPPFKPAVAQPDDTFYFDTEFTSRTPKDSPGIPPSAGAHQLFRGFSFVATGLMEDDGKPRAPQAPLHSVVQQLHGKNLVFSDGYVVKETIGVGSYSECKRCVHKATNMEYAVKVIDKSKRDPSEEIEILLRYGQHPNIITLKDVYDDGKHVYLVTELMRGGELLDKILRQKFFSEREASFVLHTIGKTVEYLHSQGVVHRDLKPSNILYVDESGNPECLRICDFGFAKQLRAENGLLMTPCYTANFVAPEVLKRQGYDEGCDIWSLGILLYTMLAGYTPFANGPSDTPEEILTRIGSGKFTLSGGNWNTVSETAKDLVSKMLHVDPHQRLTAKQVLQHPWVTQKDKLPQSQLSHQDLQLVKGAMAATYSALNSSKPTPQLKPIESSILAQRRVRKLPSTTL
Method: Assays were run in vitro against recombinant kinases. The activity is reported for each kinase, grey histograms for CH21, white for C14 and gradation grey for C1. […] Therefore, C1 and C14 affect differently the Aurora kinase family.
(§4) The profiling was performed at the MRC (Dundee University), in duplicate, on a set of 121 kinases. The panel is representative of the major different classes of kinases. Compounds were used at the concentration of 1 μM. In vitro, IC50 were determined on recombinant kinases by Reaction biology Corp (USA).

121 kinases = assay: Kinase profiling on a set of 121 kinases; type: biochemical; details: for Known Targets (%): kinases presenting the highest inhibitions, lists not exhaustive
Method: FIG. 1A: The potential inhibition of C14 was tested against 121 kinases, in vitro, at the concentration of 1 μM. The kinase activities, in the presence of C14, are represented, each kinase being represented by a vertical bar. Only 18 kinases have less than 30% activity in the presence of C14.
The specificity of C14 was tested, in vitro, against 121 kinases representative of the kinome. Assays run in duplicate, at the concentration of 1 μM, were performed by MRC (Dundee, UK). Results are represented in FIG. 1. The main targets are highlighted in FIG. 1B.
as §4

[1] = 72 h, HeLa (Cervix), 72 h of treatment, read-out: IC50 (cell line viability)

| Aurora B inhibition in cellulo (Histone H3 phosphorylation, in words) (Aurora B) | Aurora B inhibition (Aurora B) | IC50 (HeLa cells; [1]) | IC50 (H358 cells) | IC50 (HL60) | IC50 (U2OS) | effect on kinase activity (FIG. 2, in words) (RSK1) | number of kinases with less than 30% activity in the presence of compound (121 kinases; 121 kinases tested in vitro at 1 μM) | Known Targets (%) (121 kinases) | Compound | IC50 (HeLa cells; HeLa cells, average of three independent experiments, concentration that induced 50% death, read-out: IC50 (in nM), antiproliferative assay) | death of cycling cells (H358 cells; 0.5 μM, cycling H358 cells) | IC50 (U373) |
| --- | --- | --- | --- | --- | --- | --- | --- | --- | --- | --- | --- | --- |
| inhibit efficiently | +++ | 110 nM | 0.47 µM | > 2 µM | 0.72 µM | not affected | 18 | Aurora B NUAK1 TrkA Tak1 Gck Chk1 Chk2 | Cc1c[nH]c(=O)c2c1[nH]c1ccc3cc(OCCN(C)C)ccc3c12 [Compound C14, 3-(2-N,N-Dimethylaminoethoxy)-8-methyl-7H,10H-benzo[e]pyrido(4,3-b)indol-11-one] | 170 ± 82 nM | more than 50% | 3.1 µM |
| inhibit efficiently | +++ | 960 nM | 0.145 µM | 0.35 µM | > 1 µM | highly inhibited |  | Aurora A Aurora B Chk2 FLT3 Melk | CCc1c[nH]c(=O)c2c1[nH]c1ccc3cc(OC)ccc3c12 [Compound C1, reference compound] |  |  | > 1 µM |

| Compound | Aurora B inhibition in cellulo (Histone H3 phosphorylation, in words) (Aurora B) | Aurora B inhibition (Aurora B) | IC50 (HeLa cells; [1]) | IC50 (H358 cells) | IC50 (HL60) | IC50 (U2OS) | effect on kinase activity (FIG. 2, in words) (RSK1) | number of kinases with less than 30% activity in the presence of compound (121 kinases; 121 kinases tested in vitro at 1 μM) | Known Targets (%) (121 kinases) | IC50 (HeLa cells; HeLa cells, average of three independent experiments, concentration that induced 50% death, read-out: IC50 (in nM), antiproliferative assay) | death of cycling cells (H358 cells; 0.5 μM, cycling H358 cells) | IC50 (U373) |
| --- | --- | --- | --- | --- | --- | --- | --- | --- | --- | --- | --- | --- |
| Cc1cncc2c1[nH]c1ccc3cc(OCCN(C)C)ccc3c12 [CH21, 3-(2-N,N-dimethylaminoethyloxy)-8-methyl-7H-benzo[e]pyrido(4,3-b)indole] | no effect | − | 350 nM | 0.45 µM | > 2 µM | 1.1 µM | None of these kinases were significantly affected |  | NUAK1 TrkA Tak1 Gck Flt3 |  |  | 0.36 µM |
